{"source": "patent US20090216029A1", "about": "“PROCESS FOR THE PRODUCTION OF ATORVASTATIN CALCIUM IN AMORPHOUS FORM” (priority 2008, published 2009)", "settings": "25° C./60% relative humidity for 3 months", "note": "Where a name gives a salt, the structure may show the parent alone.", "procedure": "• HPLC method: • Column: Kromasil C18, 250×4.6 mm, 5 μm • Mobile phase: • A: 388.5 ml of acetonitrile+31.5 ml of tetrahydrofuran++580 ml of 0.05 molar ammonium dihydrogen orthophosphate solution in water • B: 92.5 ml of acetonitrile+7.5 ml of tetrahydrofuran+300 of methanol++100 ml of 0.05 molar ammonium dihydrogen orthophosphate solution in water • Gradient:", "data": [{"smiles": "CC(C)c1c(C(=O)Nc2ccccc2)c(-c2ccccc2)c(-c2ccc(F)cc2)n1CC[C@@H](O)C[C@@H](O)CC(=O)O", "note": "(relative stereo) [amorphous atorvastatin calcium, [R—(R*,R*)]-2-(4-fluorophenyl)-β,δ-dihydroxy-5-(1-methylethyl)-3-phenyl-4-[(phenylamino)carbonyl]-1H-pyrrole-1-heptanoic acid, calcium salt (2:1)]", "values": [{"measurement": "Total impurities and/or degradants after storage", "value": "not more than 1.0%"}]}]}
